Measured values reported in paper PMC8624457, “Synthesis and Characterization of the Ethylene-Carbonate-Linked L-Valine Derivatives of 4,4-Dimethylcurcumin with Potential Anticancer Activities” (Molecules, 2021).
Values after ≈ are worked out from the molar mass of the structure shown. Values joined by “and” are separate entries in the source; they are usually repeats but may differ in a detail not shown here. Equal entries are not always repeated. Structures can show the parent of a compound that is named as a salt.

How the values were obtained:
NCI-H460 cells = assay: Intracellular uptake and bioconversion by LC-MS of cell extracts; assay type: in vitro ADME, Human; conditions: 10 μM
Protocol: To test our hypothesis, intracellular uptake of DMCU, 1-TFA, and 2-TFA were evaluated in NCI-H460 cells which cells were more sensitive to 1-TFA and 2-TFA than DMCU. The intracellular drug uptake was generally evaluated using a fluorescence microscope or flow cytometry. However, the extremely similar chromophores among DMCU, 1-TFA, and 2-TFA caused failure in detection of individual signals by these two methodologies and therefore drew us to develop a versatile LC-MS based analysis for the cellular uptake evaluations. To estimate the cellular uptake, NCI-H460 cells were treated with each compound for the indicated time periods and the cell extracts were then subjected to LC-MS analysis to determine the intracellular levels of DMCU, 1-TFA, and […] (Figure 4). In the treatment groups, the intracellular levels of each compound were detected by LC-MS where the amount of the compound was quantified by comparing the LC-MS signals of cellular extracts to the corresponding drug calibration curves. […] The maximal uptake levels of 1-TFA and DMCU were detected by 60 ng and 7 ng, respectively, at 60 min after treatment (Figure 4A,B). In 2-TFA treated group, the maximal cellular uptakes occurred during the time interval from 30 to 60 min after drug treatment and acquired 100 ng of DMCU, 12 ng of 1-TFA and 1.2 ng of 2-TFA (Figure 4A–C). […] The cellular uptake efficiency of H460 cells was then evaluated in terms of the total quantity of DMCU, 1-TFA, and 2-TFA. […]

[1] = Water solubility by LC-MS analysis; assay type: physicochemical; conditions: for solubility: 25 °C, thermodynamic from solid, room temperature (25 ± 1 °C)
Source text: 1-TFA, and 2-TFA with the linkage of L-valine-TFA side chain on either or both of the phenol groups were expected to show an increment of water solubility. We used LC-MS analysis to determine the water solubility of DMCU, 1-TFA, and 2-TFA. Initially, the LC signals detected by ESI+ mode for each compound were assigned as follows: [M + Na]^+ for DMCU, [M + H]^+ for 1-TFA, and [M + 2H]^2+ for 2-TFA (Figure 3A). The extracted ion chromatogram (XIC) was acquired by extracting the m/z signal of 419.1461 for DMCU, 583.2652 for 1-TFA, and 385.1865 for 2-TFA with a tolerance of ±5 ppm for each sample. The retention time of signals obtained from reverse phase liquid chromatography (RPLC) was 5.15 min (DMCU), 3.97 min (1-TFA), and 3.22 min (2-TFA) (Figure 3B). The limit of quantification was 0.16 ng for DMCU (S/N = 375.81) and 1 ng for 1-TFA (S/N = 231.24) or 2-TFA (S/N = 131.19). […] Next, to determine the water solubility of DMCU, 1-TFA and 2-TFA, aqueous solutions of these compounds at different concentrations were prepared for the generation of corresponding calibration curves.
The quantitative analysis was performed using LC-MS and the results were shown in Figure 3C–E. Corresponding saturated water solutions were prepared and then diluted with ultrapure water for LC-MS analysis. […] For the analysis of DMCU water solubility, a clear solution of DMCU in 40% MeOH and 60% water (with a concentration of 1000 ppm) was prepared and divided into four portions. Each part was diluted with an appropriate amount of ultrapure water, resulting in DMCU precipitates, and the precipitates were then removed by centrifugation to give four samples with theoretical concentrations of 0.8, 4, 20, 100 ppm, respectively. The calculated concentrations of these […] samples were decided by comparing the LC-MS signals of corresponding samples to the calibration curves. (Figure 3F). The maximum concentration of DMCU in water was confirmed as 18 ppm at room temperature.
The stock solutions of 1-TFA and 2-TFA were prepared by dissolving 20 mg of 1-TFA and 2-TFA, respectively, in 1 mL of 1% formic acid(aq). The standard solution of 1-TFA or 2-TFA of 0.5, 1.25, 2.5, 5 and 12.5 μg/mL was prepared by diluting the aforementioned stock solution with an adequate amount of 40% methanol in ultrapure water. The stock solution of DMCU was prepared by dissolving 10 mg of DMCU in 1 mL of methanol. The DMCU stock solution was diluted with 40% methanol in ultrapure water to afford three standard solutions with concentrations of 0.08, 0.4, and 2 μg/mL.
The saturated aqueous solutions of compound 1-TFA and 2-TFA were prepared by a three-steps sequence including supersaturated solution preparation (addition of 20 mg compounds into 50 μL ultrapure water), centrifugation (10 min at 14,000× g), and collection of the resulting supernatants to afford the desired solutions. The saturated aqueous solutions were then diluted by ultrapure water as the ratio of 1 to 100,000 for LC-MS analysis.
The LC-MS system consisted of an ultraperformance liquid chromatography (UPLC) system (ACQUITY UPLC I-Class, Waters, Milford, MA, USA and an ESI/APCI source of 4 kDa quadrupole time-of-flight mass spectrometer (Waters VION, Waters, Milford, MA, USA). A BEH C18 column (2.1 × 100 mm, Walters, Milford, MA, USA) was equipped to perform chromatographic separation. The flow rate of 0.2 mL/min with a column temperature of 35 °C was set for each sample injection. The elution started with 60% mobile phase A (ultrapure water + 0.1% formic acid) and 40% mobile phase B (100% methanol + 0.1% formic acid), then held at 40% B for 0.5 min, raised to 95% B in 5.5 min, held at 95% B for 1 min, and then lowered to 40% B in 1 min. The column was equilibrated by pumping 40% B for 4 min. […]

A549 = assay: In vitro antiproliferative MTT assay; assay type: cell-based; conditions: Homo sapiens, A549, 72 h, mean ± SD
Protocol: (§1) Human NSCLC cell lines (NCI-H460, NCI-H358 and A549) were obtained from ATCC. All cell lines were grown in RPMI medium supplemented with 10% fetal bovine serum (FBS) and antibiotics and incubated at 37 °C in a humidified atmosphere with 5% CO2.
(§2) Antiproliferative activities to various compounds was assessed using MTT assay. In brief, 2000–5000 cells were seeded in each well of 96-well plates and incubated at 37 °C overnight before drug treatment. After a three-day drug treatment, MTT solution was added to each well and the plates were further incubated at 37 °C for 6 h. Measurement of cell viability was assessed by absorbance at 570 nm. The IC50 values for each drug were determined using CompuSyn software based on the median-effect principle and plot.

NCI-H460 = assay: In vitro antiproliferative MTT assay; assay type: cell-based; conditions: Homo sapiens, NCI-H460, 72 h, mean ± SD
Protocol: as §1, §2

NCI-H358 = assay: In vitro antiproliferative MTT assay; assay type: cell-based; conditions: Homo sapiens, NCI-H358, 72 h, mean ± SD
Protocol: as §1, §2

[2] = Storage stability by HPLC purity / 1H NMR; assay type: physicochemical; conditions: room temperature
Protocol: The procedures employed for the synthesis of targeted compounds 1 and 2 are depicted in Scheme 1. The required DMCU was prepared according to a three-step sequence reported in the literature. Initially, the commercially available Boc-L-valine 3 was reacted with 2-aminoethanol 4 in the presence of HOTT and Et3N to provide the amide product 5 in 82% yield. Under treatment with 4-nitrophenyl chloroformate and DIPEA, 5 was converted into 6 in 87% yield. One equivalent or excess amount of 6 was coupled with the deprotonated DMCU, formed in situ by the treatment of DMCU with Cs2CO3, to afford compound 7 and 8, respectively. Compound 7 and 8 thus obtained were subjected to Boc deprotection under the standard conditions to give 1 and 2, respectively. The preliminary stability test was performed with NMR by applying 2 as a typical example. […] Based on our previous experience in the synthesis of DMCU-HMP, the instability could be ascribed to the cross-hydrolysis of carbonate group by the terminal amino group of side chain. Salt formation reactions of the N-terminal L-valine were then carried out to cap the nucleophilic amino group. […] 2-TFA is also stable in DMSO solution (0.1 M concentration). After 6-day storage at room temperate, the purity of 2-TFA remained intact. Accordingly, a similar salt formation procedure was employed to produce the stable 1-TFA. Compound 1-TFA along with 2-TFA were then applied for the following evaluations.
Figure 2 The stability assessments of 2 and 2-TFA. (A) A clear solution of 2 in d-chloroform was subjected to a purity assessment by ^1H NMR spectroscopy at various storage times (fresh prepared (≤1 h); 1 day; 4 days). (B) The HPLC purity of fresh prepared 2-TFA was 95.74%. The fresh prepared 2-TFA in a solid state was stored at room temperature for another 6 days and then dissolved in water for HPLC analysis. The HPLC purity was decided as 95.55%. The fresh prepared 2-TFA was dissolved in DMSO and the resulting solution was stored at room temperature for another 6 days. HPLC purity of 2-TFA in the DMSO solution was 94.66%. […]

[3] = tested on: NCI-H460, NCI-H358 and A549 cell lines; assay: In vitro antiproliferative MTT assay, range over the NSCLC lines; assay type: cell-based; conditions: Homo sapiens, read-out: IC50 values in these cell lines
Protocol: as §1, §2

MDA-MB-231 breast cancer = conditions: cited from earlier work
[4] = tested on: HCT-116 colon cancer cell; conditions: cited from earlier work

| Compound | solubility ([1]; water, LC-MS) [mg/mL] | fold increased solubility compared to DMCU ([1]; water, room temperature) | IC50 (A549) [nM] | IC50 (NCI-H460) [nM] | IC50 (NCI-H358) [nM] | further results |
| --- | --- | --- | --- | --- | --- | --- |
| COc1cc(/C=C/C(=O)C(C)(C)C(=O)/C=C/c2ccc(OC(=O)OCCNC(=O)[C@@H](N)C(C)C)c(OC)c2)ccc1O [Compound 1-TFA] | 250 | 13,700 fold and > 10,000 fold | 3170 ± 140 | 1950 ± 160 | 1920 ± 130 | maximal uptake level: intracellular 1-TFA (NCI-H460 cells; 1-TFA-treated NCI-H460 cells, at 60 min after treatment): 60 ng |
| COc1cc(/C=C/C(=O)C(C)(C)C(=O)/C=C/c2ccc(OC(=O)OCCNC(=O)[C@@H](N)C(C)C)c(OC)c2)ccc1OC(=O)OCCNC(=O)[C@@H](N)C(C)C [Compound 2-TFA] | 376 | 20,800 fold and > 10,000 fold | 1990 ± 240 | 1690 ± 40 | 1260 ± 60 | maximal cellular uptake: intracellular 2-TFA (NCI-H460 cells; 2-TFA-treated NCI-H460 cells, 30 to 60 min after drug treatment): 1.2 ng; HPLC purity after storage in DMSO solution ([2]; DMSO solution (0.1 M), 6 days, fresh prepared 95.74%): 94.66%; HPLC purity after storage as solid ([2]; solid state, 6 days, fresh prepared 95.74%): 95.55% |
| COc1cc(/C=C/C(=O)C(C)(C)C(=O)/C=C/c2ccc(OC(=O)OCCNC(=O)[C@@H](N)C(C)C)c(OC)c2)ccc1OC(=O)OCCNC(=O)[C@@H](N)C(C)C [Compound 2] |  |  |  |  |  | stability by 1H NMR (in words) ([2]; solution in d-chloroform, fresh, 1 day, 4 days): gradually degraded into unidentified products |
| COc1cc(/C=C/C(=O)C(C)(C)C(=O)/C=C/c2ccc(O)c(OC)c2)ccc1O [DMCU, 4,4-Dimethylcurcumin] | 0.018 (≈ 45.4 µM) |  | 2500 ± 30 | 2130 ± 160 | 1620 ± 120 | maximal uptake: intracellular DMCU (NCI-H460 cells; DMCU-treated NCI-H460 cells, at 1–2 h post-drug treatment, extract of approx. 1 × 10^6 cells): about 100 ng; maximum concentration in water ([1]; room temperature, dilution of 40% MeOH solution with water, precipitate removed, LC-MS): 18 ppm; water solubility (in words) ([1]; water): virtually insoluble in water; IC50 [3]: 1620 to 2500 nM |
| COc1cc(/C=C/C(=O)C(C)(C)C(=O)/C=C/c2ccc(OC(=O)C(C)(CO)CO)c(OC)c2)ccc1OC(=O)C(C)(CO)CO [DMCU-HMP, 4,4-dimethyl substituted curcuminoid 2,2-bis(hydroxymethyl)propionate] |  |  |  |  |  | IC50 (MDA-MB-231 breast cancer): 2200 nM; IC50 [4]: 3.1 µM |
